# Assay: Saturated solubility testing in butanone and ethanol
# Format: physicochemical
# Details: for Solubility (w/w) in butanone: solvent butanone; for Solubility (w/w) in ethanol: solvent ethanol
SMILES,Solubility (w/w) in butanone,Solubility (w/w) in ethanol
O=[N+]([O-])c1ccc2c(c1)[O][Fe]1([O]c3cc([N+](=O)[O-])ccc3/N=N/c3c(ccc4ccccc34)[O]1)[O]c1ccc3ccccc3c1/N=N/2 [Example 29],50% (w/w),<1% (w/w)
CCC(C)(C)c1cc2c(c([N+](=O)[O-])c1)[O][Fe]1([O]c3ccc4ccccc4c3/N=N/2)[O]c2ccc3ccccc3c2/N=N/c2cc(C(C)(C)CC)cc([N+](=O)[O-])c2[O]1 [Example 60],≥20% (w/w),<2% (w/w)
O=[N+]([O-])c1ccc2c(c1)/N=N/c1c(ccc3ccccc13)[O][Fe]1([O]2)[O]c2ccc([N+](=O)[O-])cc2/N=N/c2c(ccc3ccccc23)[O]1 [Example 59],6% (w/w),<1% (w/w)

# From patent US20240199881A1, “METAL COMPLEX DYES FOR INKJET PRINTING” (Videojet Technologies Inc., priority 2021, published 2024)
